In brackets after ≈: the same amount, converted by molar mass. Where two headings read alike, the source gives them in different places.
How the values were obtained:
in vitro = conditions: PAMPA
[1] = Property forecast index (ChromlogD pH 7.4 + number of aromatic rings); format: physicochemical
M. bovis BCG = format: cell-based, Mycobacterium bovis BCG
[2] = pH 7.4
[3] = tested on: M. bovis BCG over-expressing constituents of the trp operon; format: cell-based; conditions: pVV16 trpA or trpB
Mycobacterium bovis BCG = experiment: microbe, parasite or virus in culture; format: cell-based; conditions: Mycobacterium tuberculosis variant bovis BCG, read-out: MIC in M. bovis BCG
physchem = conditions: pH 7.4, aqueous buffer, kinetic from dmso stock
Mtb H37Rv [4] = experiment: microbe, parasite or virus in culture; format: cell-based, Mycobacterium tuberculosis; conditions: for MIC: Mycobacterium tuberculosis, H37RV, read-out: Mtb H37Rv MIC
[5] = target: T1, Mtb tryptophan synthase (TrpA and TrpB) (Mycobacterium tuberculosis, UniProt P9WFX9+P9WFY1); format: biochemical
[6] = target: PLP-induced tryptophan synthase complex (Mycobacterium tuberculosis, UniProt P9WFX9+P9WFY1); format: binding
Mtb H37Rv [7] = conditions: mouse, in vivo
[8] = PAMPA
[9] = pH 7.4; remark: listed apart in the source
[10] = pH 7.4; remark: listed apart in the source
[11] = target: T1, Mtb tryptophan synthase (TrpA and TrpB); format: biochemical; remark: listed apart in the source
[12] = sum of chromatographic logD at pH = 7.4 + number of aromatic rings

T1 sequence (P9WFY1 whole entry): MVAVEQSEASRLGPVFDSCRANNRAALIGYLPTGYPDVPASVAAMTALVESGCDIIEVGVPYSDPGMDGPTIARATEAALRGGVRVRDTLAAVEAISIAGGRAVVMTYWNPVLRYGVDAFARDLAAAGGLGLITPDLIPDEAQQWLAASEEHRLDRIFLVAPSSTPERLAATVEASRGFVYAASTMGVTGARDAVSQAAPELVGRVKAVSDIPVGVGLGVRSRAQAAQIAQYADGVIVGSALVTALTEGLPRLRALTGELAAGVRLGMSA
T1 sequence (P9WFX9 12-421 limits assumed): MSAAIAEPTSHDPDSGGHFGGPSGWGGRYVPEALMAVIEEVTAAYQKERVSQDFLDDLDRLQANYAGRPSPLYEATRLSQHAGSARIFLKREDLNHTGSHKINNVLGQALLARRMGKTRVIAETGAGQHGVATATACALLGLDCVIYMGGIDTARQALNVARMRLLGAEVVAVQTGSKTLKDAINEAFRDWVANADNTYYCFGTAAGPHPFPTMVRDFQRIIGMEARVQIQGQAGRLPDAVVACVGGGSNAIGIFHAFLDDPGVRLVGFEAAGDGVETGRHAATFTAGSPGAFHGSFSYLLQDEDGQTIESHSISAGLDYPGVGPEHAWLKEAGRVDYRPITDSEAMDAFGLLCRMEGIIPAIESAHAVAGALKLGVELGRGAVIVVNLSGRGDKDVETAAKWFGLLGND
Sequence of PLP-induced tryptophan synthase complex (P9WFY1 whole entry): as the sequence (P9WFY1 whole entry) above
Sequence of PLP-induced tryptophan synthase complex (P9WFX9 12-421 limits assumed): as the sequence (P9WFX9 12-421 limits assumed) above

Row | Molecule | Papp (in vitro) | L-tryptophan rescue of inhibition (M. bovis BCG) | CLND Solubility [2] | Effect on MIC of over-expression of the individual WT subunits [3] | MIC (Mycobacterium bovis BCG) | HepG2 Tox50 (HepG2 cells; human) | solubility (physchem) | MIC (Mtb H37Rv [4]) | Binding to PLP-induced tryptophan synthase complex [6] | PFI [1, 12] | AMP Permeability [8] | HepG2 Tox50 (HepG2 cells) | Mtb H37Rv MIC (Mtb H37Rv [4]) | Cli mouse [9] | Cli human [10] | further results
1 | CNS(=O)(=O)c1ccc2c(c1)CCN2C(=O)c1ccccc1F [Compound 2] | 26 ×10⁻⁶ cm/s | L-tryptophan rescued the inhibition | enhanced solubility | did not alter the MIC | 5 µM (≈ 1.67 µg/mL) | >100 µM | 140 µM (≈ 46.8 µg/mL) | 5.6 µM (≈ 1.87 µg/mL) | binding of both inhibitors |  |  |  |  |  |  | PFI [1]: 5.80; L-tryptophan synthesis in presence of inhibitor (TLC) [5]: markedly decreased
2 | (3R,4R)-3-(4-(2-chloro-4-fluorophenyl)piperidin-1-yl)-4-hydroxytetrahydrothiophene 1,1-dioxide [Compound 5] |  |  | 397 µM |  |  |  |  |  |  | 5.22 | 52 ×10⁻⁶ cm/s | >100 µM | 0.5 µM |  |  | Efficacy response in acute infection assay (Mtb H37Rv [7]; sc): did not show a statistically significant response
3 | O=S1(=O)C[C@H](O)[C@@H](N2CCN(c3ccccc3Cl)CC2)C1 [Compound 1, (3R,4R)-3-(4-(2-chlorophenyl)piperazin-1-yl)-4-hydroxytetrahydrothiophene 1,1-dioxide] | 38 ×10⁻⁶ cm/s |  |  | did not alter the MIC | 1 µM (≈ 0.331 µg/mL) | >50 µM | > 464 µM | 0.76 µM (≈ 0.251 µg/mL) |  | 4.53 |  |  |  | 15.7 mL/min/g | 0.92 mL/min/g | 
4 | CNS(=O)(=O)c1ccc2c(c1)CCN2C(=O)c1ccc(C)s1 [Compound 3] | 42.7 ×10⁻⁶ cm/s | L-tryptophan rescued the inhibition | poor solubility | did not alter the MIC | 0.7 µM (≈ 0.236 µg/mL) | >100 µM | 19 µM (≈ 6.39 µg/mL) | 1.1 µM (≈ 0.37 µg/mL) | binding of both inhibitors |  |  |  |  | 27.1 mL/min/g | 1.9 mL/min/g | L-tryptophan produced in presence of inhibitor (GF-HPLC) [11]: significant decrease in the L-tryptophan produced
5 | NNC(=O)c1ccncc1 [Isoniazid, isoniazid, reference compound] |  | L-tryptophan does not rescue the inhibition |  |  |  |  |  |  |  |  |  |  |  |  |  | 
6 | (3R,4R)-3-(4-(2-chlorophenyl)piperidin-1-yl)-4-hydroxytetrahydrothiophene 1,1-dioxide [Compound 4] |  |  | 434 µM |  |  |  |  |  |  | 5.43 | 62.5 ×10⁻⁶ cm/s | >100 µM | 2.25 µM |  |  | Efficacy response in acute infection assay (Mtb H37Rv [7]): proved to be efficacious; Reduction of log CFU compared with untreated mice (Mtb H37Rv [7]; po, 350 mg/kg): 1.4 log colony forming units (CFU); Tolerability in infected mice (Mtb H37Rv [7]; po, 500 mg/kg): had to be withdrawn due to adverse effects

Reference: paper PMC5573416, “Inhibiting mycobacterial tryptophan synthase by targeting the inter-subunit interface” (Scientific Reports, 2017)
